Source: US20250222116A1, “PARP-1 DEGRADATION AGENT AND USE THEREOF” (XIZANG HAISCO PHARMACEUTICAL CO., LTD., priority 2021, published 2025)

What was measured:
[1] = tested on: breast tumor cells MDA-MB-436; assay: MDA-MB-436 cell activity test (CellTiter-Glo, 7 days); assay type: cell-based, human; conditions: Homo sapiens
How it was run: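 MDA-MB-436 cells in Leibovitz's L-15 + 10% FBS, 37° C. without CO2, seeded 4000 cells/well overnight, then treated with compound dilutions for 7 days. Viability by CellTiter-Glo luminescence; inhibition relative to solvent control and cell-free blank, IC50 from concentration-response.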

PARP7 = PARP7 (Homo sapiens (Human), UniProt Q7Z3E1); assay: PARP7 enzyme activity inhibition (chemiluminescence kit); assay type: biochemical
Chain of PARP7 (Q7Z3E1 whole entry): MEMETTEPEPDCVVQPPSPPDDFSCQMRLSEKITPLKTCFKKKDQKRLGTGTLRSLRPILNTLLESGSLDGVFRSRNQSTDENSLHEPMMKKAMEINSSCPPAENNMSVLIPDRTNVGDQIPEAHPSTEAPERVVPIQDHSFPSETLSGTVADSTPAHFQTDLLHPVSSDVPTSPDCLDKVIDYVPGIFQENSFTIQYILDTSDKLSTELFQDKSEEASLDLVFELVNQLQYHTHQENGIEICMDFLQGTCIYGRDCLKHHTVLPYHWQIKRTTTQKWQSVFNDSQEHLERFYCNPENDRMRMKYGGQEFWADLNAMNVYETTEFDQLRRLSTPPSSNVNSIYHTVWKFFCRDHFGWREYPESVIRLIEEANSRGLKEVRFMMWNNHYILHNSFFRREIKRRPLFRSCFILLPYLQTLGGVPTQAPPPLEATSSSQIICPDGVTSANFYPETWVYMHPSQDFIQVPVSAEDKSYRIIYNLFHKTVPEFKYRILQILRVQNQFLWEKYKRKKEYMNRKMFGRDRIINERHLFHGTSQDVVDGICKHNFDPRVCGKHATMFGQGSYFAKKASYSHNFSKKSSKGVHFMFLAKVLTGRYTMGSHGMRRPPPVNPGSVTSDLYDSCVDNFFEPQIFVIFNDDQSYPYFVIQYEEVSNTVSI
Experimental: PARP1, PARP2 and PARP7 chemical […] detection kits were all purchased from BPS Bioscience. The histone solution in the kit was diluted 5× with 1×PBS, and 25 μL of the diluted histone solution was added to a microwell plate and incubated overnight at 4° C. After the incubation was completed, the plate was washed three times with PBST (0.05% Tween-20). 25 μL of a blocking solution was added to the microwell plate and incubated at 25° C. for 90 minutes. After the incubation was completed, the plate was washed three times with PBST. 2.5 μL of compounds at different concentrations diluted in test buffer and 5 μL of 2.5× substrate mixed solution were added to the microwell plate. PARP1, PARP2 and PARP7 enzymes were diluted to 0.33, 0.23 and 5.00 ng/μL, respectively, 5 μL of the diluent was added to the microwell plate, and the reaction system was incubated at 25° C. for 60 minutes. After the incubation was completed, the plate was washed three times with PBST. […] ELISA ECL substrate A and substrate B were mixed at a ratio of 1:1 (v/v), 25 μL of the mixture was added to the microwell plate, and the chemiluminescence value was read using a BMG microplate reader.
Curve fitting was performed by four parameters (log(inhibitor) vs. response−Variable slope) using GraphPad Prism software, and the IC50 value was calculated.

PARP1 = PARP1 (Homo sapiens (Human), UniProt P09874); assay: PARP1 protein expression level in MDA-MB-436 cells; assay type: cell-based; conditions: 24 hours
Chain of PARP1 (P09874 whole entry): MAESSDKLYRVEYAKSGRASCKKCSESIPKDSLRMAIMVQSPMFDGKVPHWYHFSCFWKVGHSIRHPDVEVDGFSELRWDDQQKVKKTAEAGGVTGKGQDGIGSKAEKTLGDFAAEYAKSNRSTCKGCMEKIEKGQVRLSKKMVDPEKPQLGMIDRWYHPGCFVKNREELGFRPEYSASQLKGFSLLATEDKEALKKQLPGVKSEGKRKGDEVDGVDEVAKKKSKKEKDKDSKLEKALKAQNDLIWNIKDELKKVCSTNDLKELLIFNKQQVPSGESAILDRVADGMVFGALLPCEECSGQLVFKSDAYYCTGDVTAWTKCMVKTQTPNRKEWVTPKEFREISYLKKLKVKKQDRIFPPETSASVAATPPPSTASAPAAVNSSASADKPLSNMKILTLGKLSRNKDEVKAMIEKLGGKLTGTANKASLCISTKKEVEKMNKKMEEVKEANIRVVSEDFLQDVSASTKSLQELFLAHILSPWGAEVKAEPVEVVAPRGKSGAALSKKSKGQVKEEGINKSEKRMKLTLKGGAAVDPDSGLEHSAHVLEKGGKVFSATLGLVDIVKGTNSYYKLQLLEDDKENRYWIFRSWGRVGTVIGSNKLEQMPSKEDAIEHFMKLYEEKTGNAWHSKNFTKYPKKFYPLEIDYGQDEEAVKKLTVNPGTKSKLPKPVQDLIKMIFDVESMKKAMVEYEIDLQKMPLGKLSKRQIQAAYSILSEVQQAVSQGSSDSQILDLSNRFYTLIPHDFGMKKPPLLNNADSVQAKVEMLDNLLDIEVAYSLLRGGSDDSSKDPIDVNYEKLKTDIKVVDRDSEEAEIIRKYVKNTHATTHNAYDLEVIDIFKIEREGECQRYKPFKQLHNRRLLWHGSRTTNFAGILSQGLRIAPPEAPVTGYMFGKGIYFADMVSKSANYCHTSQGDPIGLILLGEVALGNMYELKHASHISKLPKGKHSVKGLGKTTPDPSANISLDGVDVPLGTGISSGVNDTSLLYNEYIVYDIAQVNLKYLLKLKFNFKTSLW
Experimental: (§1) MDA-MB-436 cells were placed in a complete DMEM medium (supplemented with 15% FBS; 10 μg/mL Insulin; 16 μg/mL Glutathione and 1% penicillin-streptomycin solution), and cultured at 37° C. under CO2-free conditions. The cells in the logarithmic growth phase were collected, the cell density was adjusted to 2×10^5 cells/well with the culture medium, and the cells were added to a 6-well cell culture plate at a volume of 1 mL/well. The compound to be tested was prepared to 2-fold the final concentration, 1 mL of the compounds at different concentrations were added to administration wells, a medium containing 0.2% DMSO was added to control wells, and the plate was incubated for 24 hours at 37° C. The cells were collected into a 1.5 mL centrifuge tube, 25 μL of RIPA lysis buffer (containing 1× protease inhibitor cocktail) was added, and the cells were lysed on ice for 15 minutes and centrifuged at 12000 rpm/min at 4° C. for 10 minutes. The supernatant was collected and the protein content was determined using the BCA method. The protein sample to be tested was diluted to 0.8 mg/mL, PARP1 was detected using a fully automated protein expression quantitative analyzer (ProteinSimple), and the internal reference protein was 3-actin (both antibodies were from CST). The software (Compass for SW) of the fully automated protein expression quantitative analyzer was used to process the raw data and calculate the peak area and the PARP1 expression rate relative to the control group.
as §1, with “L-15” for “DMEM”, “mL/well and cultured overnight. On day 2, the” for “mL/well. The”, “group. DC50 values were calculated using a four-parameter non-linear fitting model in Graphpad 8.3.0 software.” for “group.”

## CCc1cc2ncc(CN3CCN(c4ccc(C(=O)NC5CCN(c6ccc7c(c6)C(=O)N(C6CCC(=O)NC6=O)C7=O)CC5)nc4)CC3)cc2[nH]c1=O (centres unmarked) [Compound 10, N-(1-(2-(2,6-dioxopiperidin-3-yl)-1,3-dioxoisoindolin-5-yl)piperidin-4-yl)-5-(4-((7-ethyl-6-oxo-5,6-dihydro-1,5-naphthyridin-3-yl)methyl)piperazin-1-yl)picolinamide]
[1]; MDA-MB-436, 168 h, MDA-MB-436 cells, 7 days incubation, read-out: IC50 (nM), MDA-MB-436 cell inhibitory activity
  IC50: 36 nM
[1]; MDA-MB-436, MDA-MB-436 cells, 10 μM, read-out: Max inh. % 10 μM
  inhibition at 10 µM: 99.8%
PARP7
  IC50: 91 nM
PARP1; 100 nM
  PARP1 degradation rate @ 100 nM: 79%
PARP1
  DC50: 0.014 nM
